Where “and” joins values, the source holds several entries; their conditions need not be identical. Equal entries are not always repeated. Toxic doses and inconclusive results are not listed. The calls were made as follows: active = survival T/C of 150% or more; inactive = T/C below 125% in these data.
System: BDF1 mice, P388 leukemia ip, median survival T/C
Experiment: NCI In Vivo Anticancer Drug Screen. Data for tumor model P388 Leukemia (intraperitoneal) in B6D2F1 (BDF1) mice
Conditions: endpoint: median survival time, higher = longer survival
How it was run: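 Steps: implant the tumour, treat one group with compound and another with vehicle, record survival, then divide treated by control.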

[1] = dose: 100.0 mg/kg/injection, schedule: Q04DX003 (ip), vehicle: saline sonified
[2] = dose: 200.0 mg/kg/injection, schedule: Q04DX003 (ip), vehicle: saline sonified
[3] = dose: 400.0 mg/kg/injection, schedule: Q04DX003 (ip), vehicle: saline sonified
[4] = dose: 12.5 mg/kg/injection, schedule: Q01DX009 (ip), vehicle: saline with Tween-80
[5] = dose: 25.0 mg/kg/injection, schedule: Q01DX009 (ip), vehicle: saline with Tween-80
[6] = dose: 50.0 mg/kg/injection, schedule: Q01DX009 (ip), vehicle: saline with Tween-80

Measured: T/C

CC(=O)OCC(=O)[C@@]12OC(C)(C)O[C@@H]1C[C@H]1[C@@H]3CC(C=O)=C4C=C(OCCCl)CC[C@]4(C)[C@@]3(F)[C@@H](O)C[C@@]12C
inactive: dose: 0.39 mg/kg/injection, schedule: Q01DX009 (ip), vehicle: Klucel (hydroxypropylcellulose) (HPC) 95 % of control | dose: 0.78 mg/kg/injection, schedule: Q01DX009 (ip), vehicle: Klucel (hydroxypropylcellulose) (HPC) 107 % of control and 113 % of control | dose: 1.56 mg/kg/injection, schedule: Q01DX009 (ip), vehicle: Klucel (hydroxypropylcellulose) (HPC) 106 % of control and 113 % of control | dose: 2.3 mg/kg/injection, schedule: Q04DX003 (ip), vehicle: Klucel (hydroxypropylcellulose) (HPC) 104 % of control | dose: 3.12 mg/kg/injection, schedule: Q01DX009 (ip), vehicle: Klucel (hydroxypropylcellulose) (HPC) 100 % of control | dose: 3.13 mg/kg/injection, schedule: Q01DX009 (ip), vehicle: Klucel (hydroxypropylcellulose) (HPC) 105 % of control | dose: 4.6 mg/kg/injection, schedule: Q04DX003 (ip), vehicle: Klucel (hydroxypropylcellulose) (HPC) 109 % of control | dose: 6.25 mg/kg/injection, schedule: Q01DX009 (ip), vehicle: Klucel (hydroxypropylcellulose) (HPC) 122 % of control | dose: 9.3 mg/kg/injection, schedule: Q04DX003 (ip), vehicle: Klucel (hydroxypropylcellulose) (HPC) 100 % of control | dose: 12.5 mg/kg/injection, schedule: Q01DX009 (ip), vehicle: Klucel (hydroxypropylcellulose) (HPC) 124 % of control | dose: 13.0 mg/kg/injection, schedule: Q04DX003 (ip), vehicle: Klucel (hydroxypropylcellulose) (HPC) 115 % of control | dose: 25.0 mg/kg/injection, schedule: Q04DX003 (ip), vehicle: saline with Tween-80 115 % of control | dose: 30.0 mg/kg/injection, schedule: Q04DX003 (ip), vehicle: Klucel (hydroxypropylcellulose) (HPC) 115 % of control | dose: 45.0 mg/kg/injection, schedule: Q04DX003 (ip), vehicle: Klucel (hydroxypropylcellulose) (HPC) 104 % of control | dose: 50.0 mg/kg/injection, schedule: Q04DX003 (ip), vehicle: saline with Tween-80 114 % of control | dose: 70.0 mg/kg/injection, schedule: Q04DX003 (ip), vehicle: Klucel (hydroxypropylcellulose) (HPC) 108 % of control | dose: 100.0 mg/kg/injection, schedule: Q04DX003 (ip), vehicle: saline with Tween-80 124 % of control | dose: 105.0 mg/kg/injection, schedule: Q04DX003 (ip), vehicle: Klucel (hydroxypropylcellulose) (HPC) 113 % of control | dose: 200.0 mg/kg/injection, schedule: Q04DX003 (ip), vehicle: saline with Tween-80 118 % of control | dose: 400.0 mg/kg/injection, schedule: Q04DX003 (ip), vehicle: saline with Tween-80 100 % of control

Nc1nc(=S)c2ncn(C3OC(COC(=O)c4ccc(Cl)cc4)C(OC(=O)c4ccc(Cl)cc4)C3OC(=O)c3ccc(Cl)cc3)c2[nH]1 (stereo unspecified)
inactive: dose: 132.0 mg/kg/injection, schedule: Q04DX003 (ip), vehicle: saline with Tween-80 118 % of control | dose: 200.0 mg/kg/injection, schedule: Q01DX009 (ip), vehicle: saline with Tween-80 100 % of control | dose: 300.0 mg/kg/injection, schedule: Q04DX003 (ip), vehicle: saline with Tween-80 122 % of control

CC1(C)CC2(CC(C)(C)c3cc(O)c(O)cc32)c2cc(O)c(O)cc21
inactive: [1] 109 % of control | [2] 104 % of control | [3] 100 % of control

CC1C[N+](C)(C)NC1=O (stereo unspecified)
inactive: dose: 50.0 mg/kg/injection, schedule: Q01DX001 (ip), vehicle: saline 100 % of control | dose: 200.0 mg/kg/injection, schedule: Q01DX001 (ip), vehicle: saline 100 % of control

CSc1nc(=O)c(=O)nc(Nc2ccccc2)n1-c1ccccc1
inactive: [4] 88 % of control | [5] 95 % of control | [6] 88 % of control

c1ccc(CCSc2ncnc3nc[nH]c23)cc1
inactive: dose: 62.5 mg/kg/injection, schedule: Q01DX010 (ip), vehicle: saline 95 % of control and 104 % of control | dose: 125.0 mg/kg/injection, schedule: Q01DX010 (ip), vehicle: saline 95 % of control and 100 % of control | dose: 250.0 mg/kg/injection, schedule: Q01DX010 (ip), vehicle: saline 100 % of control | dose: 500.0 mg/kg/injection, schedule: Q01DX010 (ip), vehicle: saline 86 % of control and 109 % of control

COc1ccc(CN2COc3c(cc(C)c4cccnc34)C2)cc1
inactive: [4] 90 % of control | [5] 94 % of control | [6] 92 % of control

Brc1ncnc2nc[nH]c12
inactive: dose: 100.0 mg/kg/injection, schedule: Q01DX009 (ip), vehicle: saline sonified 105 % of control | [1] 100 % of control | dose: 200.0 mg/kg/injection, schedule: Q01DX009 (ip), vehicle: saline sonified 111 % of control | [2] 105 % of control | dose: 400.0 mg/kg/injection, schedule: Q01DX009 (ip), vehicle: saline sonified 116 % of control | [3] 100 % of control

COc1cc(C=Nc2ccc(-c3nc(C)sc3C)cc2)ccc1N(CCCl)CCCl
active: dose: 16.5 mg/kg/injection, schedule: Q04DX003 (ip), vehicle: Klucel (hydroxypropylcellulose) (HPC) 300 % of control | dose: 25.0 mg/kg/injection, schedule: Q04DX003 (ip), vehicle: Klucel (hydroxypropylcellulose) (HPC) 231 % of control and 300 % of control | dose: 37.5 mg/kg/injection, schedule: Q04DX003 (ip), vehicle: Klucel (hydroxypropylcellulose) (HPC) 300 % of control

CN1CCN(c2nc3ccccc3n3nnnc23)CC1
inactive: dose: 18.75 mg/kg/injection, schedule: Q01DX009 (ip), vehicle: saline with Tween-80 103 % of control | dose: 37.5 mg/kg/injection, schedule: Q01DX009 (ip), vehicle: saline with Tween-80 100 % of control

Cc1ccc(S(=O)(=O)Nc2ccc([N+](=O)[O-])cc2[N+](=O)[O-])cc1
inactive: [5] 95 % of control | [6] 92 % of control

Reference: PubChem BioAssay AID328 (DTP/NCI, 2004)
